Data on twelve compounds can be found in patent US20250114460A1, “NOVEL PLK1 DEGRADATION INDUCING COMPOUND” (UPPTHERA, INC., priority 2021, published 2025).

Holding throughout (type): cell-based
Assay [1] addresses T1, PLK1 (Homo sapiens, UniProt P53350).
T1 construct: endogenous in cells; host or cells: HeLa LgBit (Plk1-HiBit KI): HeLa stably expressing LgBit, with a CRISPR/Cas9 knock-in of HiBit at the endogenous PLK1 locus
Kind of assay: Luciferase assay for PLK1 in HeLa LgBit (Plk1-HiBit KI) cell line. The settings on record: 300 nM compound, luminescence after 9 hours. In outline:
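HeLa cells stably expressing LgBit, with HiBit knocked in at the C-terminus of endogenous Plk1, released from a 24 h 2 mM thymidine block and grown 18 h. Endurazine added, then compound at 300 nM; luminescence tracked in real time, expressed as ratio to DMSO.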

The test system of assay [2] is MRC-5 cell line. Description: Cell viability assay for MRC-5 cell line (EZ-Cytox). The settings on record: Homo sapiens, MRC5, 120 h; MRC-5 normal cell line, 5 days, 10000 nM to 1.52 nM; N.D. = no cytotoxicity until 10 μM; read-out: Activity: IC50 value of Exemplary Compound to MRC-5 cell line. As to the method: 4. Cell Viability Assay for MRC-5 Cell Line
(1) Culture of MRC-5 Cell Line
Passage of cultured cells was maintained within P15.
(2) Treatment of Compounds of the Present Invention
Then, it was cultured in 37° C.
(3) Cytotoxicity Experiment
CO2 incubator for 4 hours.

Assay [3] relates to NCI-H526 cell line. Description: Cell viability assay for H526 cell (EZ-Cytox). The note with it: Homo sapiens, NCI-H526, 120 h; H526 cells, 5 days, 3000 nM to 0.46 nM. In outline: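 NCI-H526 cells were exposed to compound in CO2 incubator culture for 5 days. Viability was read by EZ-Cytox absorbance at 450 nm after 3 min shaking, giving IC50 values.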

T1 sequence (P53350 whole entry): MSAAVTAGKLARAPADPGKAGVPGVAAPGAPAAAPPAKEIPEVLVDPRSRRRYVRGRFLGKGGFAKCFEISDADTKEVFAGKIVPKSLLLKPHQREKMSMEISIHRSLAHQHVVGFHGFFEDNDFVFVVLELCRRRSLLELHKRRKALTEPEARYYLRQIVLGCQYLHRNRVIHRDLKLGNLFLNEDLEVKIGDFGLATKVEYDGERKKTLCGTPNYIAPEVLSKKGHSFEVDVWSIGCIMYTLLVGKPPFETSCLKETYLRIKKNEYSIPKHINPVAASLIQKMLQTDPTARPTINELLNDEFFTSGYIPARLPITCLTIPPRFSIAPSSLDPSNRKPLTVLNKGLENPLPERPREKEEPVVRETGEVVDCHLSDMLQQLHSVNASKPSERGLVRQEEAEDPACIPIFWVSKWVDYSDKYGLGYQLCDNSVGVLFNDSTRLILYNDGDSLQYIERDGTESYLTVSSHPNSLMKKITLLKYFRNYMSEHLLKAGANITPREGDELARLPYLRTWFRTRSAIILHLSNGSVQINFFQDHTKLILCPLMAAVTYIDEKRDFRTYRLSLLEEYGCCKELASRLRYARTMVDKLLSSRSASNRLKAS

In the case of `COc1cc(C(=O)NN2CCC(CN3CCN(c4ccc5c(c4)C(=O)N(C4CCC(=O)NC4=O)C5=O)CC3)CC2)ccc1Nc1ncc2c(n1)N(C1CCCC1)CC(F)(F)C(=O)N2C` (stereo not drawn) [Compound 148, 4-((9-cyclopentyl-7,7-difluoro-5-methyl-6-oxo-6,7,8,9-tetrahydro-5H-pyrimido[4,5-b][1,4]diazepin-2-yl)amino)-N-(4-((4-(2-(2,6-dioxopiperidin-3-yl)-1,3-dioxoisoindolin-5-yl)piperazin-1-yl)methyl)piperidin-1-yl)-3-methoxybenzamide], in assay [1], the “Activity: ratio of the luminescense value of each Exemplary Compound treatment group to DMSO treatment group” value (shortened to “Activity: ratio”) is on record as “++ (++<0.6)”. The IC50 in assay [2] was 13.2 µM; in assay [3], under 0.05 µM.
The like results for `COc1cc(C(=O)NN2CCN(C(=O)CCC3CCN(c4ccc5c(c4)CN(C4CCC(=O)NC4=O)C5=O)CC3)CC2)ccc1Nc1ncc2c(n1)N(C(C)C)CC(F)(F)C(=O)N2C` (stereo not drawn) [Compound 59, 4-((7,7-difluoro-9-isopropyl-5-methyl-6-oxo-6,7,8,9-tetrahydro-5H-pyrimido[4,5-b][1,4]diazepin-2-yl)amino)-N-(4-(3-(1-(2-(2,6-dioxopiperidin-3-yl)-1-oxoisoindolin-5-yl)piperidin-4-yl)propanoyl)piperazin-1-yl)-3-methoxybenzamide] were, in that order, “++ (++<0.6)”, over 10 µM and under 0.03 µM.
With `COc1cc(C(=O)NC2CCN(C(=O)CCN3CCN(c4cccc5c4C(=O)N(C4CCC(=O)NC4=O)C5=O)CC3)CC2)ccc1Nc1ncc2c(n1)N(C1CCCC1)CC(C)(C)C(=O)N2C` (stereo not drawn) [Compound 121, 4-((9-cyclopentyl-5,7,7-trimethyl-6-oxo-6,7,8,9-tetrahydro-5H-pyrimido[4,5-b][1,4]diazepin-2-yl)amino)-N-(1-(3-(4-(2-(2,6-dioxopiperidin-3-yl)-1,3-dioxoisoindolin-4-yl)piperazin-1-yl)propanoyl)piperidin-4-yl)-3-methoxybenzamide], the “Activity: ratio” value in assay [1] is on record as “++ (++<0.6)”. Moreover, the IC50 in assay [2] was over 10 µM; in assay [3], under 0.2 µM.
Regarding `COc1cc(C(=O)NN2CCN(C(=O)CCC3CCN(c4cccc5c4C(=O)N(C4CCC(=O)NC4=O)C5=O)CC3)CC2)ccc1Nc1ncc2c(n1)N(C1CCCC1)CC(F)(F)C(=O)N2C` (stereo not drawn) [Compound 76, 4-((9-cyclopentyl-7,7-difluoro-5-methyl-6-oxo-6,7,8,9-tetrahydro-5H-pyrimido[4,5-b][1,4]diazepin-2-yl)amino)-N-(4-(3-(1-(2-(2,6-dioxopiperidin-3-yl)-1,3-dioxoisoindolin-4-yl)piperidin-4-yl)propanoyl)piperazin-1-yl)-3-methoxybenzamide], the “Activity: ratio” value in assay [1] was “+++ (+++: <0.3)”. The IC50 in assay [2] was over 10 µM; in assay [3] it was under 0.1 µM.
The matching figures for `COc1cc(C(=O)NN2CCC(N3CC4(CCN(c5cccc6c5C(=O)N(C5CCC(=O)NC5=O)C6=O)CC4)C3)CC2)ccc1Nc1ncc2c(n1)N(C1CCCC1)CC(F)(F)C(=O)N2C` (stereo not drawn) [Compound 211, 4-((9-cyclopentyl-7,7-difluoro-5-methyl-6-oxo-6,7,8,9-tetrahydro-5H-pyrimido[4,5-b][1,4]diazepin-2-yl)amino)-N-(4-(7-(2-(2,6-dioxopiperidin-3-yl)-1,3-dioxoisoindolin-4-yl)-2,7-diazaspiro[3.5]nonan-2-yl)piperidin-1-yl)-3-methoxybenzamide]: “+++ (+++: <0.3)”, over 10 µM and under 0.03 µM.
With `COc1cc(C(=O)NN2CCC(CN3CCN(c4cccc5c4C(=O)N(C4CCC(=O)NC4=O)C5=O)CC3)C(F)(F)C2)ccc1Nc1ncc2c(n1)N(C(C)C)CC(F)(F)C(=O)N2C` (stereo not drawn) [Compound 157, 4-((7,7-difluoro-9-isopropyl-5-methyl-6-oxo-6,7,8,9-tetrahydro-5H-pyrimido[4,5-b][1,4]diazepin-2-yl)amino)-N-(4-((4-(2-(2,6-dioxopiperidin-3-yl)-1,3-dioxoisoindolin-4-yl)piperazin-1-yl)methyl)-3,3-difluoropiperidin-1-yl)-3-methoxybenzamide], in assay [1], the “Activity: ratio” value was “++ (++<0.6)”. In addition, the IC50 is over 10 µM in assay [2] and under 0.1 µM in assay [3].
`COc1cc(C(=O)NC2CC(N(C)CCC3CCN(c4cccc5c4C(=O)N(C4CCC(=O)NC4=O)C5=O)CC3)C2)ccc1Nc1ncc2c(n1)N(C1CCCC1)CC(F)(F)C(=O)N2C` (stereo not drawn) [Compound 107, 4-((9-cyclopentyl-7,7-difluoro-5-methyl-6-oxo-6,7,8,9-tetrahydro-5H-pyrimido[4,5-b][1,4]diazepin-2-yl)amino)-N-(3-((2-(1-(2-(2,6-dioxopiperidin-3-yl)-1,3-dioxoisoindolin-4-yl)piperidin-4-yl)ethyl)(methyl)amino)cyclobutyl)-3-methoxybenzamide]: the “Activity: ratio” value in assay [1] is recorded as “++ (++<0.6)”. For the same compound, the figures for the IC50 in assay [2] and in assay [3] were over 10 µM and under 0.1 µM, respectively.
For the compound `COc1cc(C(=O)NC2CCN(C(=O)CCN3CCN(c4ccc5c(c4)CN(C4CCC(=O)NC4=O)C5=O)CC3)CC2)ccc1Nc1ncc2c(n1)N(C1CCCC1)CC(F)(F)C(=O)N2C` (stereo not drawn) [Compound 82, 4-((9-cyclopentyl-7,7-difluoro-5-methyl-6-oxo-6,7,8,9-tetrahydro-5H-pyrimido[4,5-b][1,4]diazepin-2-yl)amino)-N-(1-(3-(4-(2-(2,6-dioxopiperidin-3-yl)-1-oxoisoindolin-5-yl)piperazin-1-yl)propanoyl)piperidin-4-yl)-3-methoxybenzamide], in assay [1], the “Activity: ratio” value is “++ (++<0.6)”. For the same compound, the half-inhibitory concentration (IC50) in assay [2] was over 10 µM; in assay [3] it was under 0.03 µM.
The like results for `COc1cc(C(=O)NN2CC(N3CCN(c4ccc5c(c4)C(=O)N(C4CCC(=O)NC4=O)C5=O)CC3)C2)ccc1Nc1ncc2c(n1)N(C(C)C)CC(F)(F)C(=O)N2C` (stereo not drawn) [Compound 159, 4-((7,7-difluoro-9-isopropyl-5-methyl-6-oxo-6,7,8,9-tetrahydro-5H-pyrimido[4,5-b][1,4]diazepin-2-yl)amino)-N-(3-(4-(2-(2,6-dioxopiperidin-3-yl)-1,3-dioxoisoindolin-5-yl)piperazin-1-yl)azetidin-1-yl)-3-methoxybenzamide] were, in that order, “++ (++<0.6)”, 4.91 µM and under 0.03 µM.
Consider `CN1C(=O)C(F)(F)CN(C2CCCC2)c2nc(Nc3ccc(C(=O)NC4CCN(C(=O)CCN5CCN(c6cccc7c6C(=O)N(C6CCC(=O)NC6=O)C7=O)CC5)CC4)cc3OC(F)(F)F)ncc21` (stereo not drawn) [Compound 74, 4-((9-cyclopentyl-7,7-difluoro-5-methyl-6-oxo-6,7,8,9-tetrahydro-5H-pyrimido[4,5-b][1,4]diazepin-2-yl)amino)-N-(1-(3-(4-(2-(2,6-dioxopiperidin-3-yl)-1,3-dioxoisoindolin-4-yl)piperazin-1-yl)propanoyl)piperidin-4-yl)-3-(trifluoromethoxy)benzamide], for which the “Activity: ratio” value in assay [1] was “++ (++<0.6)”. Besides, the 50% inhibitory concentration (IC50) is over 10 µM in assay [2] and under 0.2 µM in assay [3].
`COc1cc(C(=O)NC2CCN(C(=O)CCN3CCN(c4cccc5c4C(=O)N(C4CCC(=O)NC4=O)C5=O)CC3)CC2)c(C(F)(F)F)cc1Nc1ncc2c(n1)N(C1CCCC1)CC(F)(F)C(=O)N2C` (stereo not drawn) [Compound 119, 4-((9-cyclopentyl-7,7-difluoro-5-methyl-6-oxo-6,7,8,9-tetrahydro-5H-pyrimido[4,5-b][1,4]diazepin-2-yl)amino)-N-(1-(3-(4-(2-(2,6-dioxopiperidin-3-yl)-1,3-dioxoisoindolin-4-yl)piperazin-1-yl)propanoyl)piperidin-4-yl)-5-methoxy-2-(trifluoromethyl) benzamide]: in assay [1], the “Activity: ratio” value was “++ (++<0.6)”. Further, the IC50 in assay [2] is over 10 µM; in assay [3], under 0.2 µM.
`COc1cc(C(=O)NC2CN(CC3CCN(c4cccc5c4C(=O)N(C4CCC(=O)NC4=O)C5=O)CC3)C2)ccc1Nc1ncc2c(n1)N(C1CCCC1)CC(F)(F)C(=O)N2C` (stereo not drawn) [Compound 138, 4-((9-cyclopentyl-7,7-difluoro-5-methyl-6-oxo-6,7,8,9-tetrahydro-5H-pyrimido[4,5-b][1,4]diazepin-2-yl)amino)-N-(1-((1-(2-(2,6-dioxopiperidin-3-yl)-1,3-dioxoisoindolin-4-yl)piperidin-4-yl)methyl)azetidin-3-yl)-3-methoxybenzamide]: in assay [1], the “Activity: ratio” value was “++ (++<0.6)”. The results for the IC50 in assay [2] and in assay [3] were over 10 µM and under 0.05 µM, respectively.
